From US20060122201A1, “Uracil-thioether” (priority 2002, published 2006)

Molecular target: T1, Pol III (PolC) from S. aureus (Staphylococcus aureus, UniProt P0C1P9)
T1 construct: His tag (pET15b vector) (N); made in house; host or cells: E. coli BL21(DE3)
T1 sequence (P0C1P9 1-1435): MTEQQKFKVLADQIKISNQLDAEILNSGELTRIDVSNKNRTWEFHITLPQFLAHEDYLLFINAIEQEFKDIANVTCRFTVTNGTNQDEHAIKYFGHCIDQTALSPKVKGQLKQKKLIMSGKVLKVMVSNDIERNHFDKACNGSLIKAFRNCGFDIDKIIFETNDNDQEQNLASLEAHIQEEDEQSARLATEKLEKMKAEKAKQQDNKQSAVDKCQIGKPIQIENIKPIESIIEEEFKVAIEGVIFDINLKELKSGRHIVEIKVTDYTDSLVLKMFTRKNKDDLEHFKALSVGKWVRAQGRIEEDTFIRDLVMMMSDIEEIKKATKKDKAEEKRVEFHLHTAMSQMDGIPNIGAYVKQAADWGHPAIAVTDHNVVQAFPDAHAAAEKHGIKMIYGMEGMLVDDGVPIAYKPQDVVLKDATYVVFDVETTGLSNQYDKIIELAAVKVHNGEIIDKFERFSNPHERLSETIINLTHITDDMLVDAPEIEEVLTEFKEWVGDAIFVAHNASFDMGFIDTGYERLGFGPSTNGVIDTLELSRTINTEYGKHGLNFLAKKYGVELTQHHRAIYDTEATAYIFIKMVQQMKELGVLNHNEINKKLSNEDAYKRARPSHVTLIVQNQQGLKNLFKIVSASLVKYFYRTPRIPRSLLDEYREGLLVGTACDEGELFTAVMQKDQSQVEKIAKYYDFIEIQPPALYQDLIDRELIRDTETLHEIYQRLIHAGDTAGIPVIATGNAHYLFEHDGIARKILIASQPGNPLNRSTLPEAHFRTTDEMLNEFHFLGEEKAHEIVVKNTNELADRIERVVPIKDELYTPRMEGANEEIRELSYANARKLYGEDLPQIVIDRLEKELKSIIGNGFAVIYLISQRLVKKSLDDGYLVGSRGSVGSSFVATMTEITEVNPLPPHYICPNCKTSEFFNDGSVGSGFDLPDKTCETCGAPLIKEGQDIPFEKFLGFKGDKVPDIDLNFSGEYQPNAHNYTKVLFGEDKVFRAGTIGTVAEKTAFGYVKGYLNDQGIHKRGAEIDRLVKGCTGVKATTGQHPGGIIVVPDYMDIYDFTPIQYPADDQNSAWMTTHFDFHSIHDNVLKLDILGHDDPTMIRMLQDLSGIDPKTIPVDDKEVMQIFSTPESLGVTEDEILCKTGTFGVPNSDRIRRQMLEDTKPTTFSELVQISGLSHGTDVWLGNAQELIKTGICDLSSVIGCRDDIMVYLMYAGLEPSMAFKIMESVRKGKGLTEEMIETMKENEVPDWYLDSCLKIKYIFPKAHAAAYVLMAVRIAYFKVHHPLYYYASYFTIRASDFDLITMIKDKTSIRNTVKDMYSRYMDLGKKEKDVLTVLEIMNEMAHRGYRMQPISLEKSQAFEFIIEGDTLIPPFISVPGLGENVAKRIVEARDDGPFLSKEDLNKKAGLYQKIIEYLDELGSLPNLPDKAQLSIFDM
Experiment: Determination of the IC50 for Polymerase III (PolC), coupled pyrophosphate/ATP sulfurylase/luciferase assay
Assay type: biochemical
Settings: purified His-tagged PolC 2 nM, activated calf thymus DNA, 30° C. 30 min, luminescence readout
Description: Cloning, Expression and Purification of Pol III from S. aureus
To clone polC with an N-terminal His tag, the structural gene polC is amplified from S. aureus genomic DNA with the aid of PCR. The primers SAPol 31 5′-[…]-3′ and SAPolrev 5′-[…]-3′ are used to introduce the NdeI and BamHI restriction cleavage sites respectively in front of and behind the amplified gene. After the PCR product which is 4300 bp in size has been digested with NdeI and BamHI, it is ligated into the vector pET15b (Novagen, USA), which has likewise been digested with NdeI and BamHI, and transformed into E. coli XL-1 Blue.
After transformation into E. coli BL21(DE3), the cells are cultivated for expression of PolC at 30° C. in LB medium with 100 μg/ml ampicillin until the OD595nm is 0.5, cooled to 18° C. and, after addition of 1 mM IPTG, incubated for a further 20 hours. The cells are harvested by centrifugation, washed once in PBS with 1 mM PMSF and taken up in 50 mM NaH2PO4 pH 8.0, 10 mM imidazole, 2 mM β-mercaptoethanol, 1 mM PMSF, 20% glycerol. The cells are disrupted using a French press at 12,000 psi, the cell detritus is removed by centrifugation (27,000×g, 120 min, 4° C.) and the supernatant is stirred with an appropriate amount of Ni-NTA-agarose (from Quiagen, Germany) at 4° C. for 1 hour. After the gel matrix has been packed into a column it is washed with 50 mM NaH2PO4 pH 8.0, 2 mM β-mercaptoethanol, 20 mM imidazole, 10% glycerol, and the purified protein is then eluted with the same buffer containing 100 mM imidazole. The purified protein is mixed with 50% glycerol and stored at −20° C.
Determination of the IC50 for Polymerase III
The activity of PolC is measured in an enzymatically coupled reaction, with the pyrophosphate formed during the polymerization being converted with the aid of ATP sulfurylase into ATP, which is detected using firefly luciferase. The reaction mixture contains, in a final volume of 50 μl, 50 mM Tris/Cl pH 7.5; 5 mM DTT, 10 mM MgCl2, 30 mM NaCl, 0.1 mg/ml BSA, 10% glycerol, 20 μM each DATP, dTTP, dCTP, 2 U/ml activated calf thymus DNA (from Worthington, USA), 20 μM APS and 0.06 mM luciferin. The reaction is started by adding purified PolC in a final concentration of 2 nM and is incubated at 30° C. for 30 min. The amount of pyrophosphate formed is then converted into ATP by adding ATP sulfurylase (Sigma, USA) in a final concentration of 5 nM and incubating at 30° C. for 15 min. After addition of 0.2 nM firefly luciferase, the luminescence is measured in a luminometer for 60 s. The IC50 is reported as the concentration of an inhibitor which leads to 50% inhibition of the enzymic activity of PolC.

| Structure (SMILES) | IC50 |
| --- | --- |
| CSc1nnc(CSCCn2c(=O)cc(Nc3ccc4c(c3)CCC4)[nH]c2=O)s1 [Example 15] | 110 nM |
| CCc1cc(Nc2cc(=O)n(CCSCC(=O)N3CCN(c4ccc([N+](=O)[O-])cc4)CC3)c(=O)[nH]2)ccc1C [Example 34] | 300 nM |
| CCc1cc(Nc2cc(=O)n(CCCSCC(=O)N3CCN(c4ccc(F)cc4)CC3)c(=O)[nH]2)ccc1C [Example 47] | 400 nM |

Now those with a lower IC50, led by results:

| IC50 | Structure (SMILES) |
| --- | --- |
| 50 nM | CCc1cc(Nc2cc(=O)n(CCSCc3nnc(C)s3)c(=O)[nH]2)ccc1C [Example 16] |
| 80 nM | CCc1cc(Nc2cc(=O)n(CCSCc3c(C)noc3C)c(=O)[nH]2)ccc1C [Example 42] |
